Data published in patent US7601716B2, “Pyridopyrazines and derivatives thereof as ALK and c-Met inhibitors” (Cephalon, Inc., priority 2006, dated 2009).

Key:
[1] = molecular target: T1, c-Met (phospho-c-Met) in A549 cells (Homo sapiens, UniProt P08581); test: c-Met Cellular Activity/Autophosphorylation Assay, A549 cells (HGF stimulated); assay type: cell-based; settings: 50 ng/mL HGF; for inhibition at 1 µM: 1 μM compound, read-out: c-Met autophosphorylation inhibition score, A549 Cells (1 μM); for inhibition at 3 µM: 3 μM compound, read-out: c-Met autophosphorylation inhibition score, A549 Cells (3 μM)
T1 construct: endogenous in cells; host or cells: HT29, A549 (HGF-stimulated), GTL-16
T1 sequence (P08581 25-1390): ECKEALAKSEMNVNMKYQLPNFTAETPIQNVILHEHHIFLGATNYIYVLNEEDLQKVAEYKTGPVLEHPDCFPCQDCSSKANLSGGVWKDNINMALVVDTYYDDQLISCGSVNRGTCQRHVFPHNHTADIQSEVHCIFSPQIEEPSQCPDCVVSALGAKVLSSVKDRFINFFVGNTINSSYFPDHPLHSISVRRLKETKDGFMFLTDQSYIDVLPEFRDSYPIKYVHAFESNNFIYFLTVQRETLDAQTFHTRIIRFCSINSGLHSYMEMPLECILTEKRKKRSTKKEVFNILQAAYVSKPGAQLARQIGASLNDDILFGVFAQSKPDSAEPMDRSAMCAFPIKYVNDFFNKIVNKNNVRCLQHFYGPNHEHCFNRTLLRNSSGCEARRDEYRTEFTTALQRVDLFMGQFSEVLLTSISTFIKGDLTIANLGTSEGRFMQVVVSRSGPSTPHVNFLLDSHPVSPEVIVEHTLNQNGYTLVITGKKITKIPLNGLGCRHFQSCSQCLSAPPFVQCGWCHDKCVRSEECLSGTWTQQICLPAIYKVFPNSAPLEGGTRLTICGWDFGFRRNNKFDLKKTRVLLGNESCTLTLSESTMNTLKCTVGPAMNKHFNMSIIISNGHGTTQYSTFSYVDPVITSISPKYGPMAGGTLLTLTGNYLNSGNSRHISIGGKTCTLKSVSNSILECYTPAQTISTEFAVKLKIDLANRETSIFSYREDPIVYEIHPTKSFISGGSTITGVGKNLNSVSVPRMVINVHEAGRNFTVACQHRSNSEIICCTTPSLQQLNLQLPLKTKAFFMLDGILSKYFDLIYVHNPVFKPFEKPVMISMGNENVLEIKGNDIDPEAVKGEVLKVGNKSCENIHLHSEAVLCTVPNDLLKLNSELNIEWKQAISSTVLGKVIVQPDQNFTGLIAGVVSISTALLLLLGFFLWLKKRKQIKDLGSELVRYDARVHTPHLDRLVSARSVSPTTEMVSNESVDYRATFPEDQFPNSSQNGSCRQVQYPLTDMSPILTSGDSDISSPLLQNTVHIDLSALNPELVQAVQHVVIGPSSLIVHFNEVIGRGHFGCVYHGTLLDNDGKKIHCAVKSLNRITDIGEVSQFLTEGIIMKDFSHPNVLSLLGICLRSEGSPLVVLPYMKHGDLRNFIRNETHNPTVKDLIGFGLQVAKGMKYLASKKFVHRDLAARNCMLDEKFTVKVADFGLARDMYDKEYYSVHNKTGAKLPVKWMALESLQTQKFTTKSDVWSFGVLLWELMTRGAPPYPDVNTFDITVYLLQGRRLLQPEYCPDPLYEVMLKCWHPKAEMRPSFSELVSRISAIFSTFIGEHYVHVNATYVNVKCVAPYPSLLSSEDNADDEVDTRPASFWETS
Experimental: (§1) HT29 and GTL-16 cells were serum starved for one hour in media containing 0.05% BSA and varying concentrations of Example compounds (1-10 μM). A549 cells were serum starved overnight in media containing 0.05% BSA then treated for one hour with Example compounds followed by a 15 minute stimulation with 50 ng/mL HGF (Peprotech, Rocky Hill, N.J.), respectively. Samples were resolved by electrophoresis on a 3-8% Tris-Acetate gel (40 ma/gel) and then transferred to a nitrocellulose membrane. Membranes were blocked for one hour at room temperature in Odyssey Blocking Buffer (Licor #927-40000) diluted 1:1 with 1×TBS. Membranes were then co-incubated overnight at 4° C. with primary antibodies [total Met (Cell Signaling, #3127) and Phospho-Met (Biosource, #44-888G) 1:1000 each in Odyssey Blocking Buffer diluted 1:1 with 1×TBS-T 0.05%]. The next day, membranes were washed and co-incubated with secondary antibodies [Goat anti mouse IRDye800 (Rockland, #610-132-121) and Goat anti rabbit Alexa fluor 700 (Molecular Probes, #A21038) 1:10,000] in Odyssey Blocking Buffer diluted 1:1 with 1×TBS-T 0.05% for one hour at room temperature protected from light. Blots were then washed and read on the Odyssey Infrared Imager. Total c-Met signal was visualized at 800 nm detection and phospho-c-Met signal was visualized at 700 nm detection.

[2] = molecular target: T2, c-Met (cytoplasmic domain) (Homo sapiens, UniProt P08581); test: c-Met Kinase Assay (ELISA/TRF, PLC-γ substrate); assay type: biochemical; settings: 3 μM ATP (Km level); read-out: c-Met Kinase Inhibition (IC50)
T2 construct: Reactions were initiated with 30 ng/mL c-Met (cytoplasmic domain, Invitrogen Corporation #PV3143); purchased Invitrogen Corporation PV3143
T2 sequence (P08581 956-1390 limits assumed): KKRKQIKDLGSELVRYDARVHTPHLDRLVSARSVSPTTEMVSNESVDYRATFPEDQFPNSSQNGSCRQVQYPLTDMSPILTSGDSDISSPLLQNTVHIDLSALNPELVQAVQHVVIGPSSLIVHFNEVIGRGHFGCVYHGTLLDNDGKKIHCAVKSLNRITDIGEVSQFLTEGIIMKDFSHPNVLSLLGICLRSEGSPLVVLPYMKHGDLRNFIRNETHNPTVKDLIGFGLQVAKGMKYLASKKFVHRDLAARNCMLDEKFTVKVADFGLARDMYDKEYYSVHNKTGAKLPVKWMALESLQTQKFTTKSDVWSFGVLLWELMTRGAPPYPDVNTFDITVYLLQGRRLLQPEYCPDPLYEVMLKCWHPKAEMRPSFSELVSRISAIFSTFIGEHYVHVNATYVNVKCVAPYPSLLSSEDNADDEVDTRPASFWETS
Outline: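 Readout is TRF of europium anti-phosphotyrosine (PT66) bound to GST–PLC-γ substrate coated at 10 μg/mL, after a 15 min, 37 °C reaction started with 30 ng/mL c-Met cytoplasmic domain. Percent inhibition plotted against log compound concentration and fitted (variable slope) for IC50.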

[3] = molecular target: T3, c-Met (phospho-c-Met) in HT29 cells (Homo sapiens, UniProt P08581); test: c-Met Cellular Activity/Autophosphorylation Assay, HT29 cells; assay type: cell-based; settings: for inhibition at 1 µM: HT-29, 1 μM compound, read-out: c-Met autophosphorylation inhibition score, HT29 Cells (1 μM); for inhibition at 3 µM: HT-29, 3 μM compound, read-out: c-Met autophosphorylation inhibition score, HT29 Cells (3 μM)
T3 construct: endogenous in cells; host or cells: HT29, A549 (HGF-stimulated), GTL-16
T3 sequence (P08581 25-1390): as the sequence (P08581 25-1390) above
Experimental: as §1

[4] = molecular target: baculovirus-expressed ALK (Homo sapiens, UniProt Q9UM73); test: ALK Kinase Assay (ELISA/TRF, PLC-γ substrate); assay type: biochemical; settings: read-out: ALK Kinase Inhibition (IC50); also: 1 µM ATP (Km level)
Chain of baculovirus-expressed ALK (Q9UM73 19-1620): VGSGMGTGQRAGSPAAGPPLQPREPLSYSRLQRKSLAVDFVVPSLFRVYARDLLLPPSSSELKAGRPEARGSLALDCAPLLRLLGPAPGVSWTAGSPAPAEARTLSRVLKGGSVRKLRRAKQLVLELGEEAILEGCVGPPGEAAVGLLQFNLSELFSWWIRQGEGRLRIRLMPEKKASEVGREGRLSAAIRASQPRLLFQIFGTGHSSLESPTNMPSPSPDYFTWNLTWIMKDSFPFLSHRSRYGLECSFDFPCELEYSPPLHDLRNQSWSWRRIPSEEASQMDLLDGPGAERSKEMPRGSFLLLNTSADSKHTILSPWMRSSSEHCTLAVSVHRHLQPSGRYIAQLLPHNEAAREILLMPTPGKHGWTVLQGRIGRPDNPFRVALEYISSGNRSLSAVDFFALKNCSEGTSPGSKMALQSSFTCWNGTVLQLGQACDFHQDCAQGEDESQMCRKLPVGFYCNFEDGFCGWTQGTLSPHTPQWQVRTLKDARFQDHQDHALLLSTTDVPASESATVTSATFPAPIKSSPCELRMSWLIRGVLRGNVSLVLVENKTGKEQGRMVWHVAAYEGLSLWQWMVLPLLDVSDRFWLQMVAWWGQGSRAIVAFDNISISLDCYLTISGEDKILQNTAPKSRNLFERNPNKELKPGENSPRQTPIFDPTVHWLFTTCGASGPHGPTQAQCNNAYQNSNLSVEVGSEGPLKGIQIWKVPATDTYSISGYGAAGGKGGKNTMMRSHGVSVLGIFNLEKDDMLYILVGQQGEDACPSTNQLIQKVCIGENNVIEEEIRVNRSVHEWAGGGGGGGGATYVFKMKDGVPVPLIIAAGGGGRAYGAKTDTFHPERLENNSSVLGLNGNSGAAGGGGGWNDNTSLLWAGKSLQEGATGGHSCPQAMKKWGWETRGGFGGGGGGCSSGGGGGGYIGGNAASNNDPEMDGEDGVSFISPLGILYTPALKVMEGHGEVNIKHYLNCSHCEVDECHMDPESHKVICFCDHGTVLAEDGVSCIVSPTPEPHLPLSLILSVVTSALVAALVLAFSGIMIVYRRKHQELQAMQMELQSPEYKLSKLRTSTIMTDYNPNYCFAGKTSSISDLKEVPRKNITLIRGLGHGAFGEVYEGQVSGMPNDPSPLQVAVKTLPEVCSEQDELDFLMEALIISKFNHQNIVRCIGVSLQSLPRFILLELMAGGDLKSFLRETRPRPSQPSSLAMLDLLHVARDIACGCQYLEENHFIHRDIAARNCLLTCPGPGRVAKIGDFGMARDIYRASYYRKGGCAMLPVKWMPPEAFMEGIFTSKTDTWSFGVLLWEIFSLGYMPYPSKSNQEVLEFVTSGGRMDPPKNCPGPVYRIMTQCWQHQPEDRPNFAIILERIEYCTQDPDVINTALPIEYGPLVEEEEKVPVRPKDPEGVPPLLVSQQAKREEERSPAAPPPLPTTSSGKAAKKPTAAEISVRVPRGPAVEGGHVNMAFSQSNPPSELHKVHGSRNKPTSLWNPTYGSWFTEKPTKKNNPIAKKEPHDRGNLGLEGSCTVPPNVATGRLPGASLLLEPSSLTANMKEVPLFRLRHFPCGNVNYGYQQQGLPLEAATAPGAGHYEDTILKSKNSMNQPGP
Outline: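 IC50 values fitted by nonlinear sigmoidal regression (variable slope) of percent inhibition against log compound concentration. Read-out was TRF of Eu-N1 anti-phosphotyrosine antibody bound to phosphorylated, plate-coated GST-PLC-γ (10 µg/mL). Kinase reaction used ALK at 30 ng/ml for 15 min at 37 °C.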

[5] = molecular target: T4, NPM-ALK (Homo sapiens, UniProt Q9UM73); test: ALK Cellular Assay (phospho-NPM-ALK immunoblot / ALK tyrosine phosphorylation ELISA); assay type: cell-based
T4 construct: a fusion protein consisting of nucleophosmin (NMP) and the intracellular domain of ALK; the other entry of the earlier key: NPM1 (P06748, Nucleophosmin)
Experimental: Immunoblotting of phospho-NPM-ALK and total NPM-ALK from cell lysates was carried out according to the protocols provided by the antibody suppliers. In brief, after treatment of Example compounds, cells were lysed in Frak lysis buffer [10 mM Tris, pH 7.5, 1% Triton X-100, 50 mM sodium chloride, 20 mM sodium fluoride, 2 mM sodium pyrophosphate, 0.1% BSA, plus freshly prepared 1 mM activated sodium vanadate, 1 mM dithiothreitol (#165680050, ARCOS Organics, Geel, Belgium), and 1 mM PMSF (#837091, Boehringer Mannheim Biochemicals, Indianapolis, Ind.), protease inhibitors cocktail III (#539134-1Set, Calbiochem, 1:100 dilution)]. After brief sonication, the lysates were cleared by centrifugation, mixed with sample buffer and subjected to SDS-PAGE. Following transfer to membranes, the membranes were blotted with either rabbit phospho-NPM-ALK(Y664) (Cat^#3341) or ALK antibody (Cat^#3342) from Cell Signaling Technology (Beverly, Mass.), and then the HRP-conjugated goat anti-rabbit antibodies (Santa Cruz, Calif.) after washed in TBS/0.2% Tween-20. The protein bands were visualized with ECL Western Blotting detection reagents (RPN2106, Amersham Biosciences, Buckinghamshire, UK) and quantitated with gel-pro analyzer 3.1 software.
To measure ALK tyrosine phosphorylation in cells with an ELISA assay, fluoronunc plates (Cat^#437796, Nalge Nunc, Rochester, N.Y.) were pre-coated with goat anti-mouse IgG, and incubated with the capture mouse ALK antibody (Cat^#35-4300, Zymed, Seattle, Wash.) diluted 1:1000 in Superblock (Pierce, Rockford, Ill.). Following blocking, cell lysates were added to plates and incubated overnight at 4° C. Plates were incubated with the detecting antibody, anti-phospho-ALK (Y664) (Cell Signaling Technology), diluted at 1:2000, followed by incubation with goat anti-rabbit-IgG alkaline phosphatase to amplify the detection. Wells were exposed to the fluorogenic substrate 4-MeUP (#3368-04-5, Calbiochem) and the signal quantified using a CytoFluor® (series 4000) Fluorescence Multi-Well Plate Reader (Applied Biosystems, Foster City, Calif.).

[6] = molecular target: T5, c-Met (phospho-c-Met) in GTL-16 cells (Homo sapiens, UniProt P08581); test: c-Met Cellular Activity/Autophosphorylation Assay, GTL-16 cells; assay type: cell-based
T5 construct: endogenous in cells; host or cells: HT29, A549 (HGF-stimulated), GTL-16
Experimental: as §1

| SMILES | inhibition at 1 µM [1] [%] | inhibition at 3 µM [1] [%] | IC50 [2] [nM] | inhibition at 1 µM [3] [%] | inhibition at 3 µM [3] [%] | IC50 [4] [nM] | IC50 [5] [nM] | melting point [°C] | inhibition at 1 µM ([6]; 1 μM compound, read-out: c-Met autophosphorylation inhibition score, GTL-16 Cells (1 μM)) [%] | inhibition at 3 µM ([6]; 3 μM compound, read-out: c-Met autophosphorylation inhibition score, GTL-16 Cells (3 μM)) [%] |
| --- | --- | --- | --- | --- | --- | --- | --- | --- | --- | --- |
| O=C(c1ccc(-c2cnc3c(c2)N(Cc2cc(Cl)ccc2Cl)CCN3)cc1)N1CCC[C@H]1CN1CCCC1 [Example 159, S-{4-[1-(2,5-Dichlorobenzyl)-1,2,3,4-tetrahydropyrido[2,3-b]pyrazin-7-yl]phenyl}-{2-[(pyrrolidin-1-yl)methyl]pyrrolidin-1-yl}methanone] | 0 to 25 | 0 to 25 | 1000 to 10000 | 0 to 25 | 0 to 25 | < 100 | 251 to 500 | – | – | – |
| CC(c1c(F)ccc(F)c1Cl)N1CCNc2ncc(-c3ccc(N4CCN(C)CC4)nc3)cc21 (centres unmarked) [Example 177, 1-[1-(2-Chloro-3,6-difluorophenyl)ethyl]-7-[6-(4-methylpiperazin-1-yl)pyridin-3-yl]-1,2,3,4-tetrahydropyrido[2,3-b]pyrazine] | 0 to 25 | 0 to 25 | 1000 to 10000 | 26 to 50 | 26 to 50 | < 100 | 251 to 500 | – | – | – |
| O=C(c1ccc(-c2cnc3c(c2)N(Cc2cc(Cl)ccc2C(F)(F)F)CCN3)cc1)N1CCC(N2CCCC2)CC1 [Example 117, {4-[1-(5-Chloro-2-trifluoromethylbenzyl)-1,2,3,4-tetrahydropyrido[2,3-b]pyrazin-7-yl]phenyl}-(4-(pyrrolidin-1-yl)piperidin-1-yl)methanone] | – | – | 1000 to 10000 | 0 to 25 | 0 to 25 | < 100 | ≤ 250 | – | – | – |
| O=C1CNc2ncc(-c3ccc(C(=O)N4CCC[C@H]4CN4CCCC4)cc3)cc2N1Cc1cc(Cl)ccc1Cl [Example 157, S-1-(2,5-Dichlorobenzyl)-7-[4-(2-[(pyrrolidin-1-yl)methyl]pyrrolidine-1-carbonyl)phenyl]-3,4-dihydro-1H-pyrido[2,3-b]pyrazin-2-one] | 0 to 25 | 0 to 25 | 100 to 1000 | 0 to 25 | 26 to 50 | < 100 | 251 to 500 | 180 | – | – |
| O=C(c1ccc(-c2cnc3c(c2)N(Cc2cc(Cl)ccc2Cl)CCN3)cc1)N1CCC(N2CCCC2)CC1 [Example 160, {4-[1-(2,5-Dichlorobenzyl)-1,2,3,4-tetrahydropyrido[2,3-b]pyrazin-7-yl]phenyl}-(4-(pyrrolidin-1-yl)piperidin-1-yl)methanone] | 0 to 25 | 0 to 25 | 100 to 1000 | 26 to 50 | 26 to 50 | < 100 | ≤ 250 | – | – | – |
| CN1CCN(c2ccc(-c3cnc4c(c3)N(Cc3c(F)ccc(F)c3Cl)CCN4)cn2)CC1 [Example 185, 1-(2-Chloro-3,6-difluorobenzyl)-7-[6-(4-methylpiperazin-1-yl)pyridin-3-yl]-1,2,3,4-tetrahydropyrido[2,3-b]pyrazine] | – | – | – | 51 to 75 | 76 to 100 | – | – | – | 0 to 25 | 0 to 25 |
| CN1CCN(c2cc(-c3cnc4c(c3)N(Cc3c(F)ccc(F)c3Cl)CCN4)ccn2)CC1 [Example 190, 1-(2-Chloro-3,6-difluorobenzyl)-7-[2-(4-methylpiperazin-1-yl)pyridin-4-yl]-1,2,3,4-tetrahydropyrido[2,3-b]pyrazine] | 0 to 25 | 0 to 25 | 100 to 1000 | – | – | < 100 | 501 to 750 | – | – | – |
| O=C(c1ccc(-c2cnc3c(c2)N(Cc2c(Cl)cccc2Cl)CCN3)cc1)N1CCC(N2CCCC2)CC1 [Example 163, {4-[1-(2,6-Dichlorobenzyl)-1,2,3,4-tetrahydropyrido[2,3-b]pyrazin-7-yl]phenyl}-(4-(pyrrolidin-1-yl)piperidin-1-yl)methanone] | 0 to 25 | 0 to 25 | 100 to 1000 | 0 to 25 | 26 to 50 | < 100 | 751 to 1000 | – | – | – |
| O=C(c1ccc(-c2cnc3c(c2)N(Cc2c(F)ccc(F)c2Cl)CCN3)cc1)N1CCC[C@H]1CN1CCCC1 [Example 100, {4-[1-(2-Chloro-3,6-difluorobenzyl)-1,2,3,4-tetrahydropyrido[2,3-b]pyrazin-7-yl]phenyl}-((S)-2-((pyrrolidin-1-yl)methyl)pyrrolidin-1-yl)methanone] | 0 to 25 | 0 to 25 | 100 to 1000 | 0 to 25 | 0 to 25 | < 100 | ≤ 250 | – | – | – |
| O=C(c1ccc(-c2cnc3c(c2)N(Cc2c(Cl)cccc2Cl)CCN3)cc1)N1CCC[C@H]1CN1CCCC1 [Example 164, {4-[1-(2,6-Dichlorobenzyl)-1,2,3,4-tetrahydropyrido[2,3-b]pyrazin-7-yl]phenyl}-{2-[(pyrrolidin-1-yl)methyl]pyrrolidin-1-yl}methanone] | 0 to 25 | 0 to 25 | 1000 to 10000 | 0 to 25 | 0 to 25 | < 100 | 251 to 500 | – | – | – |
| O=C(c1ccc(-c2cnc3c(c2)N(Cc2c(F)ccc(F)c2Cl)CCN3)cc1)N1CCC(N2CCCC2)CC1 [Example 99, {4-[1-(2-Chloro-3,6-difluorobenzyl)-1,2,3,4-tetrahydropyrido[2,3-b]pyrazin-7-yl]phenyl}-(4-(pyrrolidin-1-yl)piperidin-1-yl)methanone] | 0 to 25 | 0 to 25 | 100 to 1000 | 0 to 25 | 0 to 25 | < 100 | ≤ 250 | 93 to 95 | – | – |
| CN1CCN(c2ccc(-c3cnc4c(c3)N(Cc3cc(F)ccc3F)CCN4)cn2)CC1 [Example 69, 1-(2,5-Difluorobenzyl)-7-[6-(4-methylpiperazin-1-yl)pyridin-3-yl]-1,2,3,4-tetrahydropyrido[2,3-b]pyrazine] | 0 to 25 | 0 to 25 | 1000 to 10000 | 0 to 25 | 0 to 25 | < 100 | 751 to 1000 | 192 to 193 | – | – |
